The term Ki denotes a measure of affinity in units of concentration, obtained from inhibition or displacement. Read a high Ki as a looser hold on the target.

Ki data for 27 molecules are collected here from US7998978B2 (Pfizer Inc., priority 2006, dated 2011).

This assay deals with T1, JNK1α1 (Homo sapiens, UniProt P45983).
T1 construct: catalytic domain containing amino acids 1-364 and N-terminal hexahistidine tag; hexahistidine (His6) (N); made in house; host or cells: E. coli BL21 (DE3)
The assay is described as follows: Coupled spectrophotometric (PK/LDH) JNK1α1 assay: % inhibition and Ki determination. In kind it is biochemical. The conditions noted are these: JNK-1. In short, it runs like this: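 Initial rates were taken from the absorbance decrease at 340 nm at 30° C. Ki was fitted with a tight-binding model over 11 concentrations (top 100 μM); single-point inhibition was tested at 1 or 10 μM.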

T1 sequence (P45983 1-364): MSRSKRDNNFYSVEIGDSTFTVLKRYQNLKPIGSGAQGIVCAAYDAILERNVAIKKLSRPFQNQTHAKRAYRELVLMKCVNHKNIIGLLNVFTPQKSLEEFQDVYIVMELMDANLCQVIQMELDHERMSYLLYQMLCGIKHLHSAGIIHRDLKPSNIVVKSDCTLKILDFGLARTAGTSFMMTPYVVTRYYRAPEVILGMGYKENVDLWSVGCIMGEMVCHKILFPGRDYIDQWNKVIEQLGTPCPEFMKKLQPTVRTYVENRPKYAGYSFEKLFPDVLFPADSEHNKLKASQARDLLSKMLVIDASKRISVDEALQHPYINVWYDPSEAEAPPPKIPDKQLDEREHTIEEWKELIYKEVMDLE

Turning to `O=C(NCCC1CCCCO1)c1ccc2cnc(N[C@H]3CC[C@H](O)CC3)nc2c1` (stereo partly drawn) [Example 343, 2-[(trans-4-hydroxycyclohexyl)amino]-N-[2-(tetrahydro-2H-pyran-2-yl)ethyl]quinazoline-7-carboxamide], the Ki came out at 855 nM.
`O=C(NC1CCS(=O)(=O)C1)c1ccc2cnc(N[C@H]3CC[C@H](O)CC3)nc2c1` (stereo partly drawn) [Example 344, N-(1,1-dioxidotetrahydro-3-thienyl)-2-[(trans-4-hydroxycyclohexyl)amino]quinazoline-7-7-carboxamide] had a Ki of 869 nM.
For `O=C(N[C@H]1CC[C@H](CO)CC1)c1ccc2cnc(N[C@H]3CC[C@H](O)CC3)nc2c1` [Example 345, 2-[(trans-4-hydroxycyclohexyl)amino]-N-[trans-4-(hydroxymethyl)cyclohexyl]quinazoline-7-carboxamide], the Ki was 885 nM.
`O=C(NCCO)c1ccc2cnc(N[C@H]3CC[C@H](O)CC3)nc2c1` [Example 346, 2-[(trans-4-hydroxycyclohexyl)amino]-N-(2-hydroxyethyl)quinazoline-7-carboxamide] had a Ki of 945 nM.
As to `O=C(NC1CCOC1)c1ccc2cnc(N[C@H]3CC[C@H](O)CC3)nc2c1` (stereo partly drawn) [Example 347, 2-[(trans-4-hydroxycyclohexyl)amino]-N-(tetrahydrofuran-3-yl)quinazoline-7-carboxamide], the Ki is 963 nM.
`O=C(NCC1CCCCO1)c1ccc2cnc(N[C@H]3CC[C@H](O)CC3)nc2c1` (stereo partly drawn) [Example 348, 2-[(trans-4-hydroxycyclohexyl)amino]-N-(tetrahydro-2H-pyran-2-ylmethyl)quinazoline-7-carboxamide]: the Ki worked out at 978 nM.
Molecule `COc1ccc(NC(=O)c2ccc3cnc(N[C@H]4CC[C@H](O)CC4)nc3c2)cn1` [Example 349, 2-[(trans-4-hydroxycyclohexyl)amino]-N-(6-methoxypyridin-3-yl)quinazoline-7-carboxamide] returned a Ki of 1010 nM.
With `O=C(NC[C@H]1C[C@@H]1CO)c1ccc2cnc(N[C@H]3CC[C@H](O)CC3)nc2c1` [Example 350, 2-[(trans-4-hydroxycyclohexyl)amino]-N-{[(1S,2S)-2-(hydroxymethyl)cyclopropyl]methyl} quinazoline-7-carboxamide], the Ki is 1040 nM.
The same measure for `CC(O)CNC(=O)c1ccc2cnc(N[C@H]3CC[C@H](O)CC3)nc2c1` (stereo partly drawn) [Example 351, 2-[(trans-4-hydroxycyclohexyl)amino]-N-(2-hydroxypropyl)quinazoline-7-carboxamide]: 1060 nM; for `CC(C)(CO)NC(=O)c1ccc2cnc(N[C@H]3CC[C@H](O)CC3)nc2c1` [Example 352, 2-[(trans-4-hydroxycyclohexyl)amino]-N-(2-hydroxy-1,1-dimethylethyl)quinazoline-7-carboxamide]: 1100 nM.
The molecule `O=C(NC1CCCOC1)c1ccc2cnc(N[C@H]3CC[C@H](O)CC3)nc2c1` (stereo partly drawn) [Example 353, 2-[(trans-4-hydroxycyclohexyl)amino]-N-(tetrahydro-2H-pyran-3-yl)quinazoline-7-carboxamide] came in with a Ki of 1170 nM.
The same measure for `O=C(NCc1nc2cc(F)ccc2[nH]1)c1ccc2cnc(N[C@H]3CC[C@H](O)CC3)nc2c1` [Example 354, N-[(5-fluoro-1H-benzimidazol-2-yl)methyl]-2-[(trans-4-hydroxycyclohexyl)amino]quinazoline-7-carboxamide]: 1230 nM.
As for `Cc1nnc(CNC(=O)c2ccc3cnc(N[C@H]4CC[C@H](O)CC4)nc3c2)o1` [Example 355, 2-[(trans-4-hydroxycyclohexyl)amino]-N-[(5-methyl-1,3,4-oxadiazol-2-yl)methyl]quinazoline-7-carboxamide], the Ki was determined as 1390 nM.
In turn, `CCn1cc(CNC(=O)c2ccc3cnc(N[C@H]4CC[C@H](O)CC4)nc3c2)cn1` [Example 356, N-[(1-ethyl-1H-pyrazol-4-yl)methyl]-2-[(trans-4-hydroxycyclohexyl)amino]quinazoline-7-carboxamide] showed a Ki of 1480 nM.
In the case of `Cn1ncc(NC(=O)c2ccc3cnc(N[C@H]4CC[C@H](O)CC4)nc3c2)n1` [Example 358, 2-[(trans-4-hydroxycyclohexyl)amino]-N-(2-methyl-2H-1,2,3-triazol-4-yl)quinazoline-7-carboxamide] it was 1700 nM; in that of `CC(C)c1ncc(NC(=O)c2ccc3cnc(N[C@H]4CC[C@H](O)CC4)nc3c2)cn1` [Example 359, 2-[(trans-4-hydroxycyclohexyl)amino]-N-(2-isopropylpyrimidin-5-yl)quinazoline-7-carboxamide], 1720 nM.
In the case of `O=C(NCC1(O)CCOCC1)c1ccc2cnc(N[C@H]3CC[C@H](O)CC3)nc2c1` [Example 360, 2-[(trans-4-hydroxycyclohexyl)amino]-N-[(4-hydroxytetrahydro-2H-pyran-4-yl)methyl]quinazoline-7-carboxamide] it was 1730 nM; in that of `COc1ccnc(NC(=O)c2ccc3cnc(N[C@H]4CC[C@H](O)CC4)nc3c2)c1` [Example 361, 2-[(trans-4-hydroxycyclohexyl)amino]-N-(4-methoxypyridin-2-yl)quinazoline-7-carboxamide], 1810 nM.
The molecule `COc1ncccc1NC(=O)c1ccc2cnc(N[C@H]3CC[C@H](O)CC3)nc2c1` [Example 362] came in with a Ki of 1810 nM.
With `C[C@H](CO)NC(=O)c1ccc2cnc(N[C@H]3CC[C@H](O)CC3)nc2c1` [Example 363], the Ki was 1950 nM.
For `CCOC(=O)N1CC[C@@H](NC(=O)c2ccc3cnc(N[C@H]4CC[C@H](O)CC4)nc3c2)C1` [Example 364, ethyl 3-[({2-[(trans-4-hydroxycyclohexyl)amino]quinazolin-7-yl}carbonyl)amino]pyrrolidine-1-carboxylate], the inhibition constant Ki worked out at 1990 nM.
The same measure for `CC(=O)N1CCC(NC(=O)c2ccc3cnc(N[C@H]4CC[C@H](O)CC4)nc3c2)CC1` [Example 365, N-(1-acetylpiperidin-4-yl)-2-[(trans-4-hydroxycyclohexyl)amino]quinazoline-7-carboxamide]: 2060 nM; for `CC(C)(O)c1ccc(CNC(=O)c2ccc3cnc(N[C@H]4CC[C@H](O)CC4)nc3c2)cc1` [Example 366, 2-[(trans-4-hydroxycyclohexyl)amino]-N-[4-(1-hydroxy-1-methylethyl)benzyl]quinazoline-7-carboxamide]: 2170 nM; for `O=C(NCCN1CCCC1=O)c1ccc2cnc(N[C@H]3CC[C@H](O)CC3)nc2c1` [Example 367, 2-[(trans-4-hydroxycyclohexyl)amino]-N-[2-(2-oxopyrrolidin-1-yl)ethyl]quinazoline-7-carboxamide]: 2180 nM.
The same measure for `CN(C)C(=O)CNC(=O)c1ccc2cnc(N[C@H]3CC[C@H](O)CC3)nc2c1` [Example 368, N-[2-(dimethylamino)-2-oxoethyl]-2-[(trans-4-hydroxycyclohexyl)amino]quinazoline-7-carboxamide]: 2290 nM.
Molecule `Cc1cccc(NC(=O)c2ccc3cnc(N[C@H]4CC[C@H](O)CC4)nc3c2)n1` [Example 369, 2-[(trans-4-hydroxycyclohexyl)amino]-N-(6-methylpyridin-2-yl)quinazoline-7-carboxamide] displayed a Ki of 2310 nM.
With `O=C(NCCN1CCCCC1=O)c1ccc2cnc(N[C@H]3CC[C@H](O)CC3)nc2c1` [Example 370, 2-[(trans-4-hydroxycyclohexyl)amino]-N-(2-(2-oxopiperidin-1-yl)ethyl]quinazoline-7-carboxamide], the affinity corresponds to a Ki of 2470 nM.
